Test results from the supplement of paper PMC10331698.
± gives the standard deviation of the averaged measurements.

Assays:
Experiment in all cases: level (log10 ratio to DMSO vehicle control); higher = higher biomarker level / cell amount than vehicle control
[1] = compound: O=S(=O)(O)CCC(F)(F)C(F)(F)C(F)(F)C(F)(F)C(F)(F)C(F)(F)F [6:2 Fluorotelomer sulfonic acid]; conditions: in DMSO
Method: (§1)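 BioMAP Diversity Plus panel of 12 human primary cell co-culture systems (3C, 4H, LPS, SAg, BT, BF4T, BE3C, CASM3C, HDF3CGF, KF3CT, MyoF, Mphg). Compounds were added 1 h before stimulation and left for 24 h (MyoF 48 h; BT 72 h for soluble read-outs or 6 d for IgG). Biomarkers were read by ELISA, cytotoxicity by SRB, PBMC viability and proliferation by Alamar Blue. Each well value was divided by the mean of 8 DMSO control wells on the same plate and log10 transformed; duplicate blinded samples were tested at 4 concentrations.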

[2] = compound: FC(F)(F)C(F)(F)C(F)(F)CC1CO1 [1H,1H-Heptafluorobutyl epoxide]; conditions: in DMSO
Method: as §1

[3] = compound: NS(=O)(=O)C(F)(F)C(F)(F)C(F)(F)C(F)(F)C(F)(F)C(F)(F)F [Perfluorohexanesulfonamide]; conditions: in DMSO
Method: as §1

[4] = compound: O=S(=O)(O)C(F)(F)C(F)(F)C(F)(F)C(F)(F)C(F)(F)C(F)(F)C(F)(F)C(F)(F)C(F)(F)C(F)(F)F [Sodium perfluorodecanesulfonate]; conditions: in DMSO
Method: as §1

[5] = compound: NC(=O)C(F)(F)C(F)(F)C(F)(F)C(F)F; conditions: in DMSO
Method: as §1

Heptafluorobutyl iodide = compound: FC(F)(F)C(F)(F)C(F)(F)CI [Heptafluorobutyl iodide]; conditions: in DMSO
Method: as §1

[6] = compound: O=C(O)C=CC(F)(C(F)(F)F)C(F)(F)F [3-(Perfluoroisopropyl)-2-propenoic acid]; conditions: in DMSO
Method: as §1

[7] = compound: FC(F)(F)C(F)(F)C(F)(F)C(F)(F)C(F)(F)C(F)(F)CC1CO1 [3-(Perfluorohexyl)-1,2-epoxypropane]; conditions: in DMSO
Method: as §1

[8] = compound: O=C(O)C(F)(F)C(F)(F)C(F)(F)C(F)(F)C(F)(F)C(F)(F)C(F)(F)C(F)(F)C(F)(F)C(F)F [11-H-Perfluoroundecanoic acid]; conditions: in DMSO
Method: as §1

[9] = compound: FC(F)(F)C(F)(F)C(F)(F)C(F)(F)C(F)(F)C(F)(F)C(F)(F)I [1-Iodopentadecafluoroheptane]; conditions: in DMSO
Method: as §1

[10] = compound: O=S(=O)(Cl)C(F)(F)C(F)(F)C(F)(F)C(F)(F)C(F)(F)C(F)(F)C(F)(F)C(F)(F)F [Perfluoro-1-octanesulfonyl chloride]; conditions: in DMSO
Method: as §1

[11] = compound: C=CC(=O)OCC(F)(F)C(F)(F)C(F)(F)COC(=O)C=C [1H,1H,5H,5H-Perfluoro-1,5-pentanediol diacrylate]; conditions: 6700 nM; in DMSO
Method: as §1

Octafluoroadipamide = compound: NC(=O)C(F)(F)C(F)(F)C(F)(F)C(F)(F)C(N)=O [Octafluoroadipamide]; conditions: in DMSO
Method: as §1

[12] = compound: FC(F)(F)C(F)(F)CNCC(F)(F)C(F)(F)F [Bis(1H,1H-perfluoropropyl)amine]; conditions: in DMSO
Method: as §1

Hexafluoroamylene glycol = compound: OCC(F)(F)C(F)(F)C(F)(F)CO [Hexafluoroamylene glycol]; conditions: in DMSO
Method: as §1

[13] = compound: C=C(C)C(=O)OCCC(F)(F)C(F)(F)C(F)(F)C(F)(F)C(F)(F)C(F)(F)F [6:2 Fluorotelomer methacrylate]; conditions: in DMSO
Method: as §1

Nonafluoropentanamide = compound: NC(=O)C(F)(F)C(F)(F)C(F)(F)C(F)(F)F [Nonafluoropentanamide]; conditions: in DMSO
Method: as §1

[14] = compound: COC(=O)C(F)(F)C(F)(F)OC(F)(C(F)(F)F)C(F)(F)OC(F)=C(F)F [Methyl perfluoro(3-(1-ethenyloxypropan-2-yloxy)propanoate)]; conditions: in DMSO
Method: as §1

[15] = compound: O=S(=O)(F)C(F)(F)C(F)(F)C(F)(F)C(F)(F)C(F)(F)C(F)(F)C(F)(F)C(F)(F)F [Perfluorooctanesulfonyl fluoride]; conditions: in DMSO
Method: as §1

Test System: CASM3C:CXCL8/IL-8
- level (log10) ([1]; 6700 nM): 0.007 ± 0.0042
- level (log10) ([1]; 20000 nM): -0.016 ± 0.011
- level (log10) ([1]; 60000 nM): 0.0185 ± 0.019
- level (log10) ([2]; 6700 nM): 0 ± 0.017
- level (log10) ([2]; 20000 nM): 0.0005 ± 0.0078
- level (log10) ([2]; 60000 nM): -0.0035 ± 0.00071
- level (log10) ([3]; 6700 nM): -0.0235 ± 0.0035
- level (log10) ([3]; 20000 nM): -0.014 ± 0.014
- level (log10) ([3]; 60000 nM): 0.001 ± 0.0085
- level (log10) ([4]; 1500 nM): 0.025 ± 0.016
- level (log10) ([4]; 4400 nM): 0.01 ± 0.037
- level (log10) ([4]; 13000 nM): 0.03 ± 0.021
- level (log10) ([4]; 40000 nM): 0.064 ± 0.034
- level (log10) ([5]; 6700 nM): -0.006
- level (log10) ([5]; 20000 nM): -0.006
- level (log10) ([5]; 60000 nM): 0.004 ± 0.031
- level (log10) (Heptafluorobutyl iodide; 6700 nM): 0.0015 ± 0.012
- level (log10) (Heptafluorobutyl iodide; 20000 nM): -0.014 ± 0.014
- level (log10) (Heptafluorobutyl iodide; 60000 nM): -0.001 ± 0.014
- level (log10) ([6]; 6700 nM): 0.008 ± 0.025
- level (log10) ([6]; 20000 nM): 0.0025 ± 0.016
- level (log10) ([6]; 60000 nM): 0.0225 ± 0.0021
- level (log10) ([7]; 6700 nM): 0.011 ± 0.016
- level (log10) ([7]; 20000 nM): 0.011 ± 0.0099
- level (log10) ([7]; 60000 nM): 0.0295 ± 0.025
- level (log10) ([8]; 6700 nM): -0.001 ± 0.0057
- level (log10) ([8]; 20000 nM): -0.011 ± 0.0014
- level (log10) ([9]; 6700 nM): -0.0165 ± 0.016
- level (log10) ([9]; 20000 nM): 0.001 ± 0.017
- level (log10) ([10]; 6700 nM): -0.021 ± 0.0057
- level (log10) ([10]; 20000 nM): -0.0125 ± 0.013
- level (log10) ([10]; 60000 nM): 0.015 ± 0.035
- level (log10) [11]: -0.0125 ± 0.00071
- level (log10) (Octafluoroadipamide; 6700 nM): -0.007 ± 0.035
- level (log10) (Octafluoroadipamide; 20000 nM): 0.005 ± 0.0028
- level (log10) (Octafluoroadipamide; 60000 nM): -0.005 ± 0.031
- level (log10) ([12]; 6700 nM): -0.0065 ± 0.0092
- level (log10) ([12]; 20000 nM): -0.005 ± 0.014
- level (log10) ([12]; 60000 nM): 0.003 ± 0.027
- level (log10) (Hexafluoroamylene glycol; 6700 nM): 0.028 ± 0.023
- level (log10) (Hexafluoroamylene glycol; 20000 nM): -0.0055 ± 0.021
- level (log10) (Hexafluoroamylene glycol; 60000 nM): 0.0015 ± 0.021
- level (log10) ([13]; 6700 nM): 0.0185 ± 0.018
- level (log10) ([13]; 20000 nM): 0.0165 ± 0.012
- level (log10) ([13]; 60000 nM): 0.0205 ± 0.00071
- level (log10) (Nonafluoropentanamide; 6700 nM): -0.003 ± 0.018
- level (log10) (Nonafluoropentanamide; 20000 nM): -0.0105 ± 0.012
- level (log10) (Nonafluoropentanamide; 60000 nM): 0.0065 ± 0.018
- level (log10) ([14]; 6700 nM): -0.004 ± 0.0085
- level (log10) ([14]; 20000 nM): 0.013 ± 0.0085
- level (log10) ([15]; 6700 nM): 0.0025 ± 0.00071
- level (log10) ([15]; 20000 nM): -0.0035 ± 0.0035
- level (log10) ([15]; 60000 nM): 0.0035 ± 0.016

Test System: 4H:CD87/uPAR
- level (log10) ([1]; 6700 nM): -0.0005 ± 0.029
- level (log10) ([1]; 20000 nM): 0.001 ± 0.031
- level (log10) ([1]; 60000 nM): -0.002 ± 0.04
- level (log10) ([2]; 6700 nM): -0.0465 ± 0.06
- level (log10) ([2]; 20000 nM): -0.055 ± 0.045
- level (log10) ([2]; 60000 nM): -0.006 ± 0.021
- level (log10) ([3]; 6700 nM): -0.01 ± 0.011
- level (log10) ([3]; 20000 nM): 0.0115 ± 0.013
- level (log10) ([3]; 60000 nM): -0.0605 ± 0.047
- level (log10) ([4]; 1500 nM): 0.0235 ± 0.056
- level (log10) ([4]; 4400 nM): 0.0145 ± 0.022
- level (log10) ([4]; 13000 nM): 0.0455 ± 0.0064
- level (log10) ([4]; 40000 nM): 0.0065 ± 0.013
- level (log10) ([5]; 6700 nM): 0.0335 ± 0.013
- level (log10) ([5]; 20000 nM): 0.044 ± 0.033
- level (log10) ([5]; 60000 nM): 0.006 ± 0.038
- level (log10) (Heptafluorobutyl iodide; 6700 nM): 0.0585 ± 0.04
- level (log10) (Heptafluorobutyl iodide; 20000 nM): 0.0055 ± 0.0035
- level (log10) (Heptafluorobutyl iodide; 60000 nM): -0.024 ± 0.025
- level (log10) ([6]; 6700 nM): 0.034 ± 0.016
- level (log10) ([6]; 20000 nM): 0.055 ± 0.054
- level (log10) ([6]; 60000 nM): 0.105 ± 0.027
- level (log10) ([7]; 6700 nM): 0.0645 ± 0.044
- level (log10) ([7]; 20000 nM): 0.0775 ± 0.018
- level (log10) ([7]; 60000 nM): 0.107 ± 0.022
- level (log10) ([8]; 6700 nM): -0.0115 ± 0.033
- level (log10) ([8]; 20000 nM): -0.0295 ± 0.05
- level (log10) ([9]; 6700 nM): -0.013 ± 0.023
- level (log10) ([9]; 20000 nM): 0.0035 ± 0.012
- level (log10) ([10]; 6700 nM): -0.0165 ± 0.054
- level (log10) ([10]; 20000 nM): -0.023 ± 0.048
- level (log10) ([10]; 60000 nM): -0.117 ± 0.053
- level (log10) [11]: -0.0665 ± 0.13
- level (log10) (Octafluoroadipamide; 6700 nM): -0.036 ± 0.045
- level (log10) (Octafluoroadipamide; 20000 nM): -0.031 ± 0.023
- level (log10) (Octafluoroadipamide; 60000 nM): -0.065 ± 0.0057
- level (log10) ([12]; 6700 nM): -0.0665 ± 0.029
- level (log10) ([12]; 20000 nM): -0.027 ± 0.035
- level (log10) ([12]; 60000 nM): -0.047 ± 0.064
- level (log10) (Hexafluoroamylene glycol; 6700 nM): 0.0015 ± 0.0021
- level (log10) (Hexafluoroamylene glycol; 20000 nM): -0.0205 ± 0.037
- level (log10) (Hexafluoroamylene glycol; 60000 nM): -0.027 ± 0.023
- level (log10) ([13]; 6700 nM): -0.015 ± 0.025
- level (log10) ([13]; 20000 nM): 0.0015 ± 0.019
- level (log10) ([13]; 60000 nM): -0.0095 ± 0.0035
- level (log10) (Nonafluoropentanamide; 6700 nM): -0.032 ± 0.0071
- level (log10) (Nonafluoropentanamide; 20000 nM): 0.0085 ± 0.005
- level (log10) (Nonafluoropentanamide; 60000 nM): 0.009 ± 0.041
- level (log10) ([14]; 6700 nM): 0.0215 ± 0.019
- level (log10) ([14]; 20000 nM): 0.047 ± 0.044
- level (log10) ([15]; 6700 nM): 0.013 ± 0.028
- level (log10) ([15]; 20000 nM): 0.008 ± 0.033
- level (log10) ([15]; 60000 nM): 0.001 ± 0.0042
